From patent US10308689B2, “Dengue virus (DV) polypeptide sequences, T cell epitopes and methods and uses thereof” (LA JOLLA INSTITUTE FOR ALLERGY AND IMMUNOLOGY, priority 2010, dated 2019) come the findings set out here.

This assay deals with PBMC of healthy adult blood donors from Colombo, Sri Lanka. Description: Ex vivo IFNγ ELISPOT, HLA-matched PBMC of Sri Lankan blood donors. In kind it is cell-based, human. Set-up: Total Response per epitope: unit not given here. Particulars: for # donors responded: number of donors responding to the epitope; for # donors responded / Total Response per epitope: restricting HLA allele and serotype as given; for T cell response [SFC]: per epitope, ex vivo IFNγ SFC/10^6 PBMC; for # of responders: responding donors, HLA allele(s); for Total Response per epitope: total over responding donors.

On to `CC(C)C[C@H](NC(=O)[C@@H](NC(=O)[C@@H](NC(=O)[C@H](CC(C)C)NC(=O)[C@@H]1CCCN1C(=O)CNC(=O)[C@@H](NC(=O)[C@H](C)N)[C@@H](C)O)[C@@H](C)O)[C@@H](C)O)C(=O)N[C@@H](Cc1c[nH]c2ccccc12)C(=O)O`, for which the “# donors responded” value is 1, the “T cell response [SFC]” value is 275 SFC, the “# of responders” value is 1 and the “Total Response per epitope” value was determined as 275.0.

As to `CSCC[C@H](NC(=O)[C@H](CCSC)NC(=O)[C@H](CC(C)C)NC(=O)[C@@H](N)CS)C(=O)N[C@@H](CCSC)C(=O)N[C@@H](CC(C)C)C(=O)N1CCC[C@H]1C(=O)N[C@@H](C)C(=O)N[C@H](C(=O)N[C@@H](CC(C)C)C(=O)O)[C@@H](C)O`, the “# donors responded” value is listed as 1 and the “Total Response per epitope” value is recorded as 78.3.

On to `CC(C)C[C@H](NC(=O)[C@H](CCC(=O)O)NC(=O)[C@H](CC(C)C)NC(=O)[C@H](CCCCN)NC(=O)CNC(=O)[C@H](CC(C)C)NC(=O)[C@H](Cc1c[nH]cn1)NC(=O)[C@H](Cc1c[nH]c2ccccc12)NC(=O)[C@@H]1CCCN1C(=O)CN)C(=O)O`, for which the “# donors responded” value turned out to be 2 and the “Total Response per epitope” value was determined as 495.0.

For the compound `CSCC[C@H](NC(=O)[C@H](CCC(=O)O)NC(=O)[C@H](CC(C)C)NC(=O)[C@H](CCCCN)NC(=O)CNC(=O)[C@H](CC(C)C)NC(=O)[C@H](Cc1c[nH]cn1)NC(=O)[C@H](Cc1c[nH]c2ccccc12)NC(=O)[C@@H]1CCCN1C(=O)CN)C(=O)O`, the “# donors responded” value was 3 and the “Total Response per epitope” value is reported as 90.0.

`CC[C@H](C)[C@H](NC(=O)[C@@H](NC(=O)[C@H](Cc1ccccc1)NC(=O)CNC(=O)[C@@H]1CCCN1C(=O)[C@@H](N)Cc1c[nH]cn1)[C@@H](C)O)C(=O)N[C@@H](CC(C)C)C(=O)N[C@@H](C)C(=O)N[C@@H](CC(C)C)C(=O)N[C@@H](Cc1ccccc1)C(=O)O`: the “# donors responded” value was found to be 9 and the “Total Response per epitope” value is given as 3763.3.

For the compound `CC[C@H](C)[C@H](N)C(=O)N[C@@H](C)C(=O)N[C@@H](CC(N)=O)C(=O)N[C@@H](CCC(N)=O)C(=O)N[C@@H](C)C(=O)N[C@H](C(=O)N[C@H](C(=O)N[C@@H](CC(C)C)C(=O)N[C@@H](CCSC)C(=O)O)C(C)C)[C@@H](C)O`, the “# donors responded” value was 7 and the “Total Response per epitope” value is reported as 1518.3.

With `CC[C@H](C)[C@H](N)C(=O)N[C@@H](C)C(=O)N[C@H](C(=O)N[C@@H](CO)C(=O)N[C@@H](CCSC)C(=O)N[C@@H](C)C(=O)N[C@@H](CC(N)=O)C(=O)N[C@H](C(=O)N[C@@H](Cc1ccccc1)C(=O)O)[C@@H](C)CC)C(C)C`, the “# donors responded” value stood at 6 and the “Total Response per epitope” value was 1966.7.

As for `CC[C@H](C)[C@H](N)C(=O)N[C@@H](C)C(=O)N[C@H](C(=O)N[C@@H](CO)C(=O)N[C@H](C(=O)N[C@@H](C)C(=O)N[C@@H](CC(N)=O)C(=O)N[C@H](C(=O)N[C@@H](Cc1ccccc1)C(=O)O)[C@@H](C)CC)[C@@H](C)O)C(C)C`, the “# donors responded” value was 2 and the “Total Response per epitope” value was determined as 415.0.

As to `CC[C@H](C)[C@H](N)C(=O)NCC(=O)N[C@H](C(=O)NCC(=O)N[C@H](C(=O)N[C@@H](CC(C)C)C(=O)N[C@@H](CC(C)C)C(=O)N[C@H](C(=O)N[C@@H](Cc1c[nH]c2ccccc12)C(=O)O)[C@@H](C)O)[C@@H](C)CC)[C@@H](C)CC`, the “# donors responded” value amounted to 1 and the “Total Response per epitope” value was 525.0.

With `CC[C@H](C)[C@H](N)C(=O)N[C@H](C(=O)N[C@@H](CC(C)C)C(=O)N[C@@H](CCC(=O)O)C(=O)N[C@@H](Cc1ccccc1)C(=O)N[C@@H](Cc1ccccc1)C(=O)N[C@@H](CC(C)C)C(=O)N[C@@H](CCSC)C(=O)N[C@H](C(=O)O)C(C)C)[C@@H](C)CC`, the “# donors responded” value is 1 and the “Total Response per epitope” value was found to be 143.3.

`CC[C@H](C)[C@H](N)C(=O)N1CCC[C@H]1C(=O)N[C@@H](Cc1ccccc1)C(=O)N[C@@H](CCC(=O)O)C(=O)N[C@H](C(=O)N[C@@H](CCSC)C(=O)N[C@@H](CC(=O)O)C(=O)N[C@@H](CC(C)C)C(=O)N[C@@H](CCC(=O)O)C(=O)N[C@@H](CCCCN)C(=O)O)[C@@H](C)CC`: the “# donors responded” value came to 5 and the “Total Response per epitope” value is recorded as 1500.0.

`CC[C@H](C)[C@H](N)C(=O)N1CCC[C@H]1C(=O)N[C@@H](CCSC)C(=O)N[C@@H](C)C(=O)N[C@H](C(=O)N[C@@H](Cc1ccc(O)cc1)C(=O)NCC(=O)N[C@@H](Cc1c[nH]c2ccccc12)C(=O)N[C@@H](CC(N)=O)C(=O)N[C@@H](CC(C)C)C(=O)O)[C@@H](C)O`: the “# donors responded” value is reported as 2 and the “Total Response per epitope” value is recorded as 456.7.

As for `CC[C@H](C)[C@H](N)C(=O)N1CCC[C@H]1C(=O)N[C@@H](CCSC)C(=O)N[C@@H](CO)C(=O)N[C@H](C(=O)N[C@@H](Cc1ccc(O)cc1)C(=O)NCC(=O)N[C@@H](Cc1c[nH]c2ccccc12)C(=O)N[C@@H](CC(N)=O)C(=O)N[C@@H](CC(C)C)C(=O)O)[C@@H](C)O`, the “# donors responded” value was determined as 3 and the “Total Response per epitope” value is 320.0.

For `CC[C@H](C)[C@H](N)C(=O)N1CCC[C@H]1C(=O)N[C@@H](CCSC)C(=O)N[C@H](C(=O)NCC(=O)N1CCC[C@H]1C(=O)N[C@@H](CC(C)C)C(=O)N[C@H](C(=O)N[C@@H](C)C(=O)NCC(=O)O)C(C)C)[C@@H](C)O`, the “# donors responded” value is 5 and the “Total Response per epitope” value was 1160.0.

On to `CC[C@H](C)[C@H](N)C(=O)N[C@@H](CCC(N)=O)C(=O)N1CCC[C@H]1C(=O)N[C@@H](Cc1ccccc1)C(=O)N[C@@H](CC(C)C)C(=O)N[C@@H](C)C(=O)N[C@@H](CC(C)C)C(=O)NCC(=O)N[C@@H](Cc1ccccc1)C(=O)O`, for which the “# donors responded” value came out at 1 and the “Total Response per epitope” value is on record as 85.0.

Consider `CC[C@H](C)[C@H](N)C(=O)N[C@H](C(=O)N[C@@H](CC(C)C)C(=O)N[C@@H](CC(C)C)C(=O)N[C@@H](CS)C(=O)N[C@@H](CC(C)C)C(=O)N[C@H](C(=O)N1CCC[C@H]1C(=O)N[C@H](C(=O)N[C@H](C(=O)O)C(C)C)[C@@H](C)O)[C@@H](C)CC)[C@@H](C)O`, for which the “# donors responded” value amounted to 1 and the “Total Response per epitope” value was found to be 63.3.

As to `CC(C)C[C@H](NC(=O)[C@H](CCCNC(=N)N)NC(=O)[C@@H]1CCCN1C(=O)[C@@H](N)CCCCN)C(=O)N[C@@H](CS)C(=O)N[C@H](C(=O)N[C@@H](CCCNC(=N)N)C(=O)N[C@@H](CCC(=O)O)C(=O)N[C@@H](CCC(=O)O)C(=O)N[C@@H](Cc1ccccc1)C(=O)O)[C@@H](C)O`, the “# donors responded” value is listed as 1, the “T cell response [SFC]” value is reported as 350 SFC, the “# of responders” value worked out at 1 and the “Total Response per epitope” value came to 350.0.

In the case of `CC(C)C[C@H](NC(=O)[C@H](CCCNC(=N)N)NC(=O)[C@@H]1CCCN1C(=O)[C@@H](N)CC(N)=O)C(=O)N[C@@H](CS)C(=O)N[C@H](C(=O)N[C@@H](CCCNC(=N)N)C(=O)N[C@@H](CCC(=O)O)C(=O)N[C@@H](CCC(=O)O)C(=O)N[C@@H](Cc1ccccc1)C(=O)O)[C@@H](C)O`, the “# donors responded” value is on record as 1, the “T cell response [SFC]” value was 365 SFC, the “# of responders” value is recorded as 1 and the “Total Response per epitope” value stood at 365.0.
